Measurements: ChEMBL document CHEMBL3046738, “Quinolactacide, a new quinolone insecticide from Penicillium citrinum Thom F 1539” (Biosci Biotechnol Biochem, 2005)

Legend:
[1] = Solubility of the compound in DMSO; type: physicochemical
[2] = Solubility of the compound in methanol; type: physicochemical
[3] = Solubility of the compound in chloroform; type: physicochemical
[4] = Solubility of the compound in ethyl acetate; type: physicochemical
[5] = tested on: Myzus persicae; assay: Insecticidal activity against Myzus persicae (green peach aphid) infested two-leaf stage of cabbage plants assessed as mortality at 250 ppm applied as spray after 4 days relative to untreated control; type: functional; conditions: 96 h

With O=C1c2c([nH]c3ccccc3c2=O)-c2cccn21 [QUINOLACTACIDE] the solubility [1] was “soluble”, the solubility [2] was “Insoluble” and the solubility [3] was “Insoluble”. For the same compound, the solubility [4] was “Insoluble” and the mortality at 250 ppm [5] was 88%.
